According to patent publication US7645882B2, “Inhibitor of protein modification products formation” (priority 2003, dated 2010):
Values belong to the molecule of their own block, whether it stands above or below them.

Assays:
normal rat (WKY rat) = assay: Vitamin B6 deficiency in normal rat; format: in vivo; settings: 13 mg/kg/rat/once twice daily by sonde, 20 weeks
Method: TM-2002 was administered to normal rat (WKY rat: Japan SLC) to examine the presence of vitamin B6 deficiency. Aminoguanidine, which is known its vitamin B6 capturing effect was used as control. Each group involves 10 rats. 13 mg/kg/rat/once of TM-2002 or aminoguanidine suspended in carboxymethyl cellulose (0.5%) was respectively administered coercively using sonde twice a daily. Administration term was 20 weeks. The conventional diet (CRF1: Oriental yeast) was used.
After 20 weeks, the appearance of WKY rat was observed.

pentosidine = assay: Pentosidine production inhibiting effect with BSA and arabinose; format: biochemical; settings: BSA and arabinose instead of plasma
Method: Fresh heparinized plasma samples were obtained after informed consent from hemodialysis patients prior to the dialysis session, and filtrated and sterilized. To the plasma (450 μL), there was added the solution of TM-2002 in dimethylsurphoxide (50 μL) (final concentration: 0.8, 2.0, 5.0 mM) incubated at 37° C. for one week. Then, the amount of pentosidine was measured.
Measurement of the amount of pentosidine was made as follows: to each incubated sample (50 μL) was added an equal volume of 10% trichloroacetic acid, followed by centrifugation at 5000 g for 5 minutes; after removal of the supernatant, the pellet was washed by 5% trichloroacetic acid (300 μL); the pellet was dried under reduced pressure and then subjected to hydrolysis in 6N HCl solution (100 μL) at 110° C. under nitrogen atmosphere for 16 hours; to the hydrolysate, 5N NaOH (100 μL) and 0.5 M phosphate buffer (pH 7.4) (200 μL) were added, followed by filtration through a porefilter with a pore size of 0.5 μm and dilution with PBS. The concentration of free pentosidine was determined by reversed-phase HPLC using a fluorescence detector (Miyata, T. et al.: Proc. Natl. Acad. Sci. USA, Vol. 93, p. 2353-2358, 1996). The effluent was monitored at 335/385 nm of excitation/emission wavelength. Synthetic pentosidine was used as the standard. The detection limit of pentosidine was 0.1 pmol/mg protein.
The plasma from patients was substituted to BSA and arabinose, and the pentosidine production inhibiting effect of another compounds (I) or (II) was measured in the same manner as [Test Examination 1]. Therein, “-” means that the examination was not carried out.

[1] = Examination of stabilizing agent in TM-2002 hydrochloride solution; format: physicochemical
From the text: Several kind of stabilizing agent was usually used to stabilize the medicament and the effective manner is addition of antioxidant. Particularly, the material having lower oxidation-reduction potential is effective to stabilize highly oxidized compound. Accordingly, for sodium acid sulfite (NaHSO3) and L-cystein ([…]), which are usually used in injection, the stability was examined by adding such materials to TM-2002 hydrochloride aqueous solution.
The solving state of TM-2002 hydrochloride solution added sodium acid sulfite was examined in following manner; 1 ml of purified water, sodium acid sulfite (0.5 mg) and sodium acid sulfite (1 mg) solution was prepared respectively; to these solutions, there was added 63 mg of TM-2002 hydrochloride, stirred and solved; the solutions allowed to warm to room temperature to observe the solving state. […] Accordingly, the stability of TM-2002 itself will increase by using hydrochloride.
The solving state of TM-2002 hydrochloride solution added L-cystein hydrochloride was examined in following manner; 1 mg and 2 mg of L-cystein hydrochloride were dissolved in 1 ml of purified water respectively; pH was adjusted to 6.5; to these solutions, there was added 63 mg of TM-2002 hydrochloride, stirred and solved; the solutions allowed to warm to room temperature to observe the solving state. […] In addition, the degradability was observed by thin layer chromatography (TLC/Silica-gel 60F254 (Merck Japan)/developing solvent: chloroform:methanol=9:1/detection:UV=254 nm). […] Accordingly, the present invention provides lyophilized formulation comprising L-cystein by treating TM-2002 hydrochloride solution at low temperature and lyophilizing.

[2] = Solubility and stability of TM-2002 injectable lyophilized formulation; format: physicochemical; settings: room temperature, at 10 hours
Method: L-cystein hydrochloride (160 mg) was added to 80 ml of purified water, stirred and solved. The solution was adjust at pH 6.7 with 1N NaOH aqueous solution. Then 1 g of TM-2002 hydrochloride was added, stirred and solved, and the solution diluted with purified water to 100 ml with measuring flask. Such solution was divided into vial container of 50 ml by 6.3 ml each, frozen immediately with dry ice, and then stored at −80° C. to freeze completely. This was subjected to lyophilized for 3 days using lyophilizer. After lyophilizing, covered by rubber cap and sealed by aluminum cap using fastener, TM-2002 injectable lyophilized formulation was prepared.
To TM-2002 injectable lyophilized formulation prepared above, there was added 20 ml of purified water per 1 vial. […] TLC (Kiezel gel 60F254/developing solvent: CHCl3:MeOH=9:1/detection:UV=254 nm) was carried out to examine the change of ingredient. […] The result of TLC is represented in FIG. 16. When the solution was further diluted with saline, the stability was as same. […] The formulation is suitable for injectable lyophilized formulation which is prepared before use, and stable and usable.

ORP150 = assay: ER stress inducing molecule expression in RIN-5F cells, western blot, ORP150; format: cell-based, rat; settings: tunicamycin added, 8 hours
Method: (§1) Rat pancreatic β cell line (RIN-5F) was seeded in 6 well culture plate to 1.0×10^5 cells/well, and after 24 hours, TM-2002 in DMSO (200 mM, 50 mM) were added to be final concentration 200 μM, 50 μM. After another 1 hour, 0.2 μl of tunicamycin (Sigma) in methanol(1 mg/ml) was added. After culturing 8 hours, the cells were washed 2 ml of PBS(+) twice, and the cells were dissolved in 100 μl of lysate (50 mM Tris-HCl (pH 7.5), 150 mM NaCl, 100 mM NaF, 100 mM sodium phosphate (pH 7.4), 2 mM Na3VO4, 0.1% protease inhibitor cocktail (Sigma), 1% Triton X-100). To remove the insoluble fraction of this lysate, centrifuged at 12,000×g for 10 minutes and obtained the supernatant to give cell extract. The extract was quantified its protein concentration using DC protein assay kit (Bio Rad), and each samples (1 μg) was electrophoresed by SDS-PAGE and transferred to PVDF membrane. The membrane was blocked with 5% skimmed milk/0.1% Tween20-TBS for 1 hour at room temperature, and reacted with anti-ORP150 antibody in 5% skimmed milk/0.1% Tween20-TBS (2000 folds: specific antibody), anti-GRP78 antibody (Santa Cruz) in 5% skimmed milk/0.1% Tween20-TBS (100 folds) and anti-actin antibody (Sigma) in 5% skimmed milk/0.1% Tween20-TBS (200 folds) for 2 hours. […] The detected signal was analyzed by Lane analyzer (ATTO) and calculated the signal strength. […]

GRP78 = assay: ER stress inducing molecule expression in RIN-5F cells, western blot, GRP78; format: cell-based, rat; settings: tunicamycin added, 8 hours
Method: as §1

[3] = 63 mg in 1 ml purified water only, pH 2 to 2.5, after 24 hours

Molecule: N=C(N)NN [aminoguanidine]
- condition caused by vitamin B6 deficiency (appearance) (normal rat (WKY rat)): skin inflammation, epilepsy and convulsion caused by cerebral disorder were observed

- solving state ([1]; 63 mg in 1 ml with 0.5 mg or 1 mg sodium acid sulfite, room temperature, after 24 hours): remarkable precipitates were observed
- solving state ([1]; 63 mg in 1 ml with 1 mg or 2 mg L-cystein hydrochloride, after 24 hours): no change was observed in solving state
- stabilization (TLC) ([1]; by addition of L-cystein, room temperature): significantly stabilized
- degradability (TLC) ([1]; left over 24 hours at room temperature): degraded very slowly
- stability of the solution ([1]; solution with L-cystein hydrochloride, preservation at −20° C., one week): stable after one week
- solving state ([1]; with sodium sulfite or sodium pyrosulfite instead of sodium acid sulfite): crystal precipitate was deposited
- decomposition products (TLC) [2]: decomposition products were observed
Molecule: Cc1ncc2c(c1O)C(c1c(C)nn(-c3ccccc3)c1O)OC2.Cl (centres unmarked) [compound 69, 1-(5-hydroxy-3-methyl-1-phenyl-1H-pyrazol-4-yl)-6-methyl-1,3-dihydro-furo[3,4-c]pyridin-7-ol (hydrochloric acid salt)]
- Pentosidine production rate in 5 mM of medicament (%) (pentosidine): 2.94%
- TM-2002 degradation [1, 3]: significant suppress of TM-2002 degradation was observed
- solving state [1, 3]: no change was observed in its solving state
- solving state ([1]; 63 mg in 1 ml with 1 mg or 2 mg L-cystein hydrochloride, pH adjusted to 6.5, room temperature): no precipitates and deposits was observed

Molecule: tunicamycin [reference compound]
- ORP150 expression compared to control sample (ORP150): 1.88 folds
- GRP78 expression compared to control sample (GRP78): 1.46 fords
